Patent US5089623A, “Certain imidate insecticides” (Imperial Chemical Industries Plc, priority 1990, dated 1992)

Tests used:
Type in all cases: in vivo
[1] = tested on: Housefly [Musca domestica]; experiment: Housefly insecticidal test (HF); conditions: per 25 female houseflies, 48 hours
[2] = tested on: Aster Leafhopper [Macrosteles fascifrens (Stal)]; experiment: Aster leafhopper test (LH); conditions: adults/nymphs, 48 hours, percent in solution
[3] = tested on: Tobacco Budworm [Heliothis virescens (Fabricius)] eggs; experiment: Tobacco budworm egg test (TBW-E); conditions: percent in solution
[4] = tested on: Rice water weevil [Lissorhoptrus oryzophilus (Kuschel)]; experiment: Rice water weevil test (RWW); conditions: per weevil, topical, female adults, 48 hours
Experimental: (§1) The compounds in Tables 1 and 2 above were tested for insecticidal activity using the following testing procedures. LC50 values, based on the results of these tests and calculated according to dosage-mortality curves, are expressed in Table 3.
Rice water weevil [Lissorhoptrus oryzophilus (Kuschel)]
Test compounds were diluted in acetone. Droplets (1 ul) of test solutions were applied to the ventral abdomens of ten female adult weevils. The treated weevils were placed in containers with wet cotton balls and rice foliage. The containers were covered and kept at a temperature of about 25° C. Mortality was recorded after 48 hours. […] The LC50 values are expressed below in Table 3 under the heading "RWW" in terms of μg of test compound per weevil.

[5] = tested on: Cabbage Looper [Trichoplusia ni (Hubner)]; experiment: Cabbage looper test (CL); conditions: second-instar larvae, 3-5 days, percent in solution
[6] = tested on: Maize weevil [Sitophilus Zeamais (Motschulsky)]; experiment: Maize weevil test (MW); conditions: adult weevils, treated corn seeds, 48 hours, percent in solution
Outline: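 Adult weevils (10) were placed with four corn seeds that had been dipped 2-3 s in compound dissolved in 50:50 acetone:water, then dried, and held at about 25° C. Mortality was scored at 48 h. LC50 was taken from dosage-mortality curves and expressed as percent compound in solution, from a 0.01% top concentration.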

[7] = tested on: Tobacco Budworm [Heliothis virescens (Fabricius)]; experiment: Tobacco budworm contact test (TBW-C); conditions: second-instar larvae, 5 days, percent in solution
Outline: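 Cotton cotyledons dipped 2–3 s in compound in 50:50 acetone–water, dried, then infested with 5 second-instar larvae and held 5 days at high humidity before scoring mortality.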

[8] = tested on: Beet Armyworm (Spodoptera exigua); experiment: Beet armyworm test (BAW); conditions: second-instar larvae, five days, percent in solution
Experimental: as §1
Beet Armyworm (Spodoptera exigua)
Test compounds were diluted in a 50-50 acetone-water solution. Young leaves of sugar beets (Beta vulgaris) were immersed in the test solutions for 2-3 seconds and placed on a wire screen to dry. The dried leaves were placed in petri dishes containing a moistened filter paper and infested with five second-instar beet armyworm larvae. The dishes were placed in a high humidity chamber. Mortality of the larvae was recorded five days later. Test concentrations ranged from 0.1% downward. The LC-50 values are expressed below in Table 3 under the heading "BAW" in terms of percent of the test compound in solution.

| Compound | LC50 HF [1] [µg] | LC50 LH [2] [%] | LC50 TBW E [3] [%] | LC50 RWW [4] [µg] | LC50 CL [5] [%] | LC50 MW [6] [%] | LC50 TBW C [7] [%] | LC50 BAW [8] [%] |
| --- | --- | --- | --- | --- | --- | --- | --- | --- |
| CC(C)C(=Nc1ccc(C(F)(F)F)cc1)OCc1cccc(Oc2ccccc2)c1 [Compound 68] | 37 | 0.0001 | 0.009 | 0.15 | 0.006 | > 0.01 |  |  |
| CCC(=Nc1ccc(F)c(Cl)c1)OCc1cccc(Oc2ccccc2)c1 [Compound 85] | 7 | 0.003 | > 0.1 | > 2.5 | 0.004 | > 0.01 |  |  |
| Fc1ccc(N=C(OCc2cccc(Oc3ccccc3)c2)C2CC2)cc1Cl [Compound 113] | 15 |  | 0.1 | > 2.5 | 0.005 |  |  |  |
| CC(C)C(=Nc1ccc(F)c(Cl)c1)OCc1cccc(Oc2cccc(F)c2)c1 [Compound 125] | 12 | > 0.05 | 0.025 | > 2.5 | 0.0007 | > 0.01 |  |  |
| CC(C)C(=Nc1ccc2c(c1)OCO2)OCc1cccc(Oc2ccc(F)cc2)c1 [Compound 176] | 1.8 | > 0.05 | 0.05 |  | 0.0005 | 0.009 | 0.002 | 0.0035 |
| CC(C)C(=Nc1ccc(F)c(Cl)c1)OCc1cccc(Oc2ccc(F)cc2F)c1 [Compound 191] | 29 | > 0.05 | 0.04 | > 2.5 | 0.00023 | 0.004 |  |  |
| CC(C)C(=Nc1c(F)c(F)c(F)c(F)c1F)OCc1cccc(Oc2ccc(F)cc2)c1 [Compound 198] | 52 | 0.05 | > 0.1 | > 2.5 | 0.0005 | 0.003 |  |  |
| CC(C)C(=Nc1ccc(F)c(Cl)c1)OCc1cc(Oc2ccc(F)cc2)ccc1F [Compound 230] | 36 |  | 0.1 | > 2.5 | 0.0004 | 0.038 |  |  |
| CC(C)C(=Nc1ccc(F)c(Br)c1)OCc1cccc(Oc2ccccc2)c1 [Compound 254] | 6 |  | 0.026 | > 2.5 | 0.001 |  |  |  |
| CC(C)C(=Nc1ccc(F)c(Cl)c1)OCc1cccc(Oc2ccc(F)cc2)c1F [Compound 262] | 26 |  | > 0.1 | > 2.5 | 0.0004 | 0.005 |  |  |
| CC(C)C(=Nc1cccc(C(F)(F)F)c1)OCc1ccc(F)c(Oc2ccc(F)cc2)c1 [Compound 268] | 4 | 0.0005 | 0.023 |  | 0.000025 | > 0.01 | 0.0005 | 0.001 |
| CC(C)C(=Nc1cccc(Cl)c1)OCc1cccc(Oc2ccc(Cl)cc2)c1 [Compound 270] | 12 | 0.003 | > 0.01 |  | 0.00025 | > 0.01 | > 0.0015 | 0.005 |
| CC(C)C(=Nc1cccc(I)c1)OCc1ccc(F)c(Oc2ccc(F)cc2)c1 [Compound 279] | 4 | 0.0003 | 0.016 |  | 0.00008 | > 0.01 | 0.007 | 0.0025 |
| CC(C)(F)C(=Nc1ccc(F)c(Cl)c1)OCc1ccc(F)c(Oc2ccc(F)cc2)c1 [Compound 310] | 4.5 |  | 0.015 | > 2.5 | 0.00006 |  |  |  |
| CC(C)C(=Nc1ccc(C(F)(F)F)cc1)OCc1ccc(F)c(Oc2ccc(F)cc2)c1 [Compound 314] | 21 |  | 0.012 | 0.11 | 0.00005 |  |  |  |
| CC(C)C(=Nc1ccc(OC(F)(F)F)cc1)OCc1ccc(F)c(Oc2ccc(F)c(F)c2)c1 [Compound 347] | 30 | 0.0002 | > 0.1 |  | 0.000075 | > 0.01 | 0.0001 | 0.00075 |

| Compound | LC50 HF [1] [µg] | LC50 LH [2] [%] | LC50 TBW E [3] [%] | LC50 RWW [4] [µg] | LC50 CL [5] [%] | LC50 MW [6] [%] | LC50 TBW C [7] [%] | LC50 BAW [8] [%] |
| --- | --- | --- | --- | --- | --- | --- | --- | --- |
| CC(C)C(=Nc1ccc(F)c(F)c1F)OCc1cccc(Oc2ccc(F)cc2)c1 [Compound 348] | 8 | 0.05 | > 0.1 |  | 0.0002 | > 0.01 | 0.00075 | > 0.1 |
| CCOc1ccc(N=C(OCc2ccc(F)c(Oc3ccc(Cl)cc3)c2)C(C)C)cc1Cl [Compound 369] | > 100 |  | > 0.1 | > 2.5 | 0.0016 | > 0.01 |  |  |
| CCOc1ccc(N=C(OCc2ccc(F)c(Oc3ccccc3)c2)C(C)C)cc1Cl [Compound 370] | < 100 |  | 0.02 | > 2.5 | 0.00034 | > 0.01 |  |  |
| CC(C)C(=Nc1cccc(F)c1)OCc1ccc(F)c(Oc2ccc(Cl)cc2)c1 [Compound 375] | 7.9 |  | 0.04 | > 2.5 | > 0.1 | > 0.01 |  |  |
| CC(C)C(=Nc1ccc(Cl)c(Cl)c1)OCc1ccc(F)c(Oc2ccccc2)c1 [Compound 376] | 17 |  | 0.02 | 0.1 | 0.00037 | 0.0061 |  |  |
| CC(C)C(=Nc1ccc(C(F)(F)F)c(Br)c1)OCc1ccc(F)c(Oc2ccc(Cl)cc2)c1 [Compound 377] | < 100 |  | > 0.1 | > 2.5 | 0.00062 | > 0.01 |  |  |
| CC(C)C(=Nc1ccc(Br)cc1)OCc1ccc(F)c(Oc2ccc(Cl)cc2)c1 [Compound 378] | < 100 |  | 0.02 | > 2.5 | 0.00034 | > 0.01 |  |  |
| CC(C)C(=Nc1ccc(Br)c(Cl)c1)OCc1cccc(Oc2ccc(Cl)cc2)c1 [Compound 380] | > 100 |  | > 0.1 | > 2.5 | > 0.1 | > 0.01 |  |  |
| CC(C)C(=Nc1ccc(Br)c(Cl)c1)OCc1ccc(F)c(Oc2ccc(Cl)cc2)c1 [Compound 381] | < 100 |  | 0.018 | > 2.5 | 0.00092 | > 0.01 |  |  |
| CC(C)C(=Nc1ccc(Br)c(Cl)c1)OCc1ccc(F)c(Oc2ccc(F)cc2)c1 [Compound 382] | < 100 |  | 0.027 | > 2.5 | 0.00029 | > 0.01 |  |  |
| CC(C)C(=Nc1cccc(Br)c1)OCc1ccc(F)c(Oc2ccccc2)c1 [Compound 387] | < 100 |  | 0.05 | > 2.5 | 0.0012 | > 0.01 |  |  |
| CC(C)C(=Nc1ccc(Cl)cc1)OCc1ccc(F)c(Oc2ccc(Cl)cc2)c1 [Compound 391] | < 100 |  | 0.035 | > 2.5 | 0.00029 |  |  |  |
| C=C(C)C(=Nc1ccc(C(F)(F)F)cc1)OCc1ccc(F)c(Oc2ccccc2)c1 [Compound 431] | 9.8 |  | 0.025 | 0.084 | 0.00017 | 0.0037 |  |  |
| CC(C)C(=Nc1ccc(C(F)(F)F)c(Br)c1)OCc1ccc(F)c(Oc2ccc(Cl)cc2)c1 [Compound 433] | < 100 |  | 0.02 | 0.078 | 0.00017 | 0.005 |  |  |
| CC(C)C(=Nc1ccc(Cl)c(OCC(F)(F)F)c1)OCc1ccc(F)c(Oc2ccc(Cl)cc2)c1 [Compound 452] | > 100 |  | < 0.1 | 0.1 | 0.0017 | > 0.01 |  |  |
